SMILES strings stand for the structures. Structures can show the parent of a compound that is named as a salt.

The text below walks through data of patent US11931389B2, “Tablet of sporoderm-removed ganoderma lucidum spore and preparation method thereof” (Zhejiang Shouxiangu Pharmaceutical Company, Ltd., priority 2017, dated 2024).

Common to all, as to type: in vivo
Assay [1] concerns human lung adenocarcinoma (A549) transplanted tumor. Nature of the assay: Zebrafish human lung adenocarcinoma (A549) transplanted tumor model. As to conditions: A549, 50 μM, 2 days. The text has this: Human lung adenocarcinoma (A549) cells were labeled with a red fluorescent dye (CM-Dil), and transplanted into zebrafish yolk sacs by microinjection, with about 200 cells being transplanted per zebrafish, so as to establish a zebrafish human lung adenocarcinoma transplanted tumor model.
Human lung adenocarcinoma (A549) cells were labeled with CM-Dil, and transplanted into 2 dpf wild type AB strain zebrafish yolk sacs by microinjection, with about 200 cells being transplanted per zebrafish, so as to establish a zebrafish human lung adenocarcinoma (A549) transplanted model; and the zebrafishes injected with the A549 cells were fed at 35° C. until 3 dpf.
(§1) Zebrafishes with better consistence in transplanted tumor cells were picked out under a microscope, randomly assigned to a 6-well plate, and were given in a water-dissolving administration manner respectively with the samples at concentrations respectively of 1, 3 and 9 μg/mL and the positive control drug cis-platinum at a concentration of 50 μM; and meanwhile a model control group was set, where there were 30 zebrafishes per well (concentration group), and the volume of each well was 5 mL. […] The inhibitory effect of the sample No. 3 on the zebrafish lung adenocarcinoma (A549) transplanted tumor was evaluated with the fluorescence intensities, and the tumor inhibition effect was calculated using the following equation. […]

The test system of assay [2] is human gastric cancer (SGC-7901) transplanted tumor. Nature of the assay: Zebrafish human gastric cancer (SGC-7901) transplanted tumor model. As to conditions: SGC-7901, 50 μM, 2 days. The text has this:
Human gastric cancer (SGC-7901) cells were labeled with a red fluorescent dye (CM-Dil), and transplanted into zebrafish yolk sacs by microinjection, with about 200 cells being transplanted per zebrafish, so as to establish the zebrafish human gastric cancer transplanted tumor model.
Human gastric cancer (SGC-7901) cells were labeled with CM-Dil, and transplanted into 2 dpf wild type AB strain zebrafish yolk sacs by microinjection, with about 200 cells per zebrafish, so as to establish a zebrafish human gastric cancer (SGC-7901) transplanted model; and the zebrafishes injected with the SGC-7901 cells were fed at 35° C. until 3 dpf.
Zebrafishes with better consistence in transplanted tumor cells were picked out under a microscope, randomly assigned to a 6-well plate, and were given in a water-dissolving administration manner respectively with the samples at concentrations respectively of 28, 83 and 250 μg/mL and the positive control drug cis-platinum at a concentration of 50 μM; and meanwhile a model control group was set, where there were 30 zebrafishes per well, and the volume of each well was 5 mL. […] The inhibitory effects of samples on the zebrafish gastric cancer (SGC-7901) transplanted tumor were respectively evaluated with the fluorescence intensities, and the tumor inhibition effect was calculated using the following equation. […]

Assay [3] deals with human lymphatic cancer (Ramos) transplanted tumor. Nature of the assay: Zebrafish human lymphatic cancer (Ramos) transplanted tumor model. The note with it: Danio rerio, 48 h, 2 days, read-out: Inhibition Effect.
Description: Human lymphatic cancer (Ramos) cells were labeled with a red fluorescent dye (CM-Dil), and transplanted into zebrafish yolk sacs by microinjection, with about 200 cells being transplanted per zebrafish, so as to establish a zebrafish human lymphatic cancer transplanted tumor model.
Human lymphatic cancer (Ramos) cells were labeled with CM-Dil, and transplanted into 2 dpf wild type AB strain zebrafish yolk sacs by microinjection, with about 200 cells being transplanted per zebrafish, so as to establish a zebrafish human lymphatic cancer transplanted model; and the zebrafishes injected with the human lymphatic cancer cells were fed at 35° C. until 3 dpf.
as §1, with “vincristine” for “cis-platinum”, “5” for “50”, “sample” for “sample No. 3”, “lymphatic cancer (Ramos)” for “lung adenocarcinoma (A549)”

Regarding `N.N.[Cl][Pt][Cl]` [cis-platinum, Cis-platinum], the “Inhibition Effect” value amounted to 29% in assay [1] and 37% in assay [2].
The inhibition is the percentage by which the read-out fell short of the control. With `CC[C@]1(O)C[C@H]2CN(CCc3c([nH]c4ccccc34)[C@@](C(=O)OC)(c3cc4c(cc3OC)N(C=O)[C@H]3[C@@](O)(C(=O)OC)[C@H](OC(C)=O)[C@]5(CC)C=CCN6CC[C@]43[C@@H]65)C2)C1` [vincristine, Vincristine sulfate], in assay [3], the inhibition at 5 µM amounted to 35%.
